Biological target: T1, human RORgT (Homo sapiens, UniProt P51449)
T1 construct: expressed in transfected cells
T1 sequence (P51449 267-516): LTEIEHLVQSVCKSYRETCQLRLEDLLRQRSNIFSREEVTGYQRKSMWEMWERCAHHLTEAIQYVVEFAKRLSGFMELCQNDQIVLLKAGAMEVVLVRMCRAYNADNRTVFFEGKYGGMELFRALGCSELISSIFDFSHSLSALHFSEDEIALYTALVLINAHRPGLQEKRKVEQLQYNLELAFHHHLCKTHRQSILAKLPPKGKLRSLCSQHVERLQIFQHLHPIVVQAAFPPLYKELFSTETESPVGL
Test: RORgT Gal4 Luciferase Reporter Gene Assay
Format: cell-based
Conditions: engineered Jurkat cells overexpressing RORgT (LBD or full length) fused with Gal4 Luc reporter; 18 hours at 37° C.; luminescence
Outline: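 Jurkat cells expressing Gal4 Luc with either RORgT LBD (aa267-516) or full-length human RORgT, 10,000 cells/well, treated with compound (40 µM to 0.67 nM final, 3-fold dilutions) for 18 h at 37° C. Steady-Glo luminescence read; inhibition of constitutive activity as % signal-window reduction relative to a control compound.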

SMILES | EC50
Cc1ccccc1Oc1ccc2c(c1)CC[C@H]1N(C(=O)C3CCS(=O)(=O)CC3)CC[C@@]21S(=O)(=O)c1ccc(F)cc1 [Example 49, 4-[(3aR,9bR)-9b-(4-fluorobenzenesulfonyl)-7-(2-methylphenoxy)-1H,2H,3H,3aH,4H,5H,9bH-benzo[e]indole-3-carbonyl]-1λ^6-thiane-1,1-dione] | 0.0018 µM
O=C(O)C12CCC(C(=O)N3CC[C@@]4(S(=O)(=O)c5ccccc5)c5ccc(OCc6c(Cl)cccc6Cl)cc5CC[C@@H]34)(CC1)CC2 [Example 81, 4-[(3aR,9bR)-9b-(benzenesulfonyl)-7-[(2,6-dichlorophenyl)methoxy]-1H,2H,3H,3aH,4H,5H,9bH-benzo[e]indole-3-carbonyl]bicyclo[2.2.2]octane-1-carboxylic acid] | 0.025 µM
CS(=O)(=O)C1CCN(C(=O)N2CC[C@@]3(S(=O)(=O)c4ccccc4)c4ccc(OCc5c(Cl)cccc5Cl)cc4CC[C@@H]23)CC1 [Example 82, 1-[(3aR,9bR)-9b-(benzenesulfonyl)-7-[(2,6-dichlorophenyl)methoxy]-1H,2H,3H,3aH,4H,5H,9bH-benzo[e]indole-3-carbonyl]-4-methanesulfonylpiperidine] | 0.097 µM
COC(=O)[C@H]1CC[C@H](C(=O)N2CC[C@@]3(S(=O)(=O)c4ccc(F)cc4)c4ccc(OCc5c(Cl)cccc5Cl)cc4CC[C@@H]23)CC1 [Example 169, methyl(1r,4r)-4-[(3aR,9bR)-7-[(2,6-dichlorophenyl)methoxy]-9b-(4-fluorobenzenesulfonyl)-1H,2H,3H,3aH,4H,5H,9bH-benzo[e]indole-3-carbonyl]cyclohexane-1-carboxylate] | 0.037 µM
O=C(C1CCS(=O)(=O)CC1)N1CC[C@@]2(S(=O)(=O)c3ccc(F)cc3)c3ccc(CCc4c(Cl)cccc4Cl)cc3CC[C@@H]12 [Example 161, 4-[(3aR,9bR)-7-[2-(2,6-dichlorophenyl)ethyl]-9b-(4-fluorobenzenesulfonyl)-1H,2H,3H,3aH,4H,5H,9bH-benzo[e]indole-3-carbonyl]-1λ^6-thiane-1,1-dione] | 0.0058 µM
CN1CCC(C(=O)N2CC[C@@]3(S(=O)(=O)c4ccccc4)c4ccc(OCc5c(Cl)cccc5Cl)cc4CC[C@@H]23)CC1=O (stereo partly drawn) [Example 55, 4-[(3aR,9bR)-9b-(benzenesulfonyl)-7-[(2,6-dichlorophenyl)methoxy]-1H,2H,3H,3aH,4H,5H,9bH-benzo[e]indole-3-carbonyl]-1-methylpiperidin-2-one] | 0.083 µM
CN1C[C@@H](C(=O)N2CC[C@@]3(S(=O)(=O)c4ccc(F)cc4)c4ccc(OCc5c(F)cccc5C(F)(F)F)cc4CC[C@@H]23)NC1=O [Example 30, (4S)-4-[(3aR,9bR)-7-{[2-fluoro-6-(trifluoromethyl)phenyl]methoxy} -9b-(4-fluorobenzenesulfonyl)-1H,2H,3H,3aH,4H,5H,9bH-benzo[e]indole-3-carbonyl]-1-methylimidazolidin-2-one] | 0.0039 µM
O=C(O)[C@H]1CC[C@H](C(=O)N2CC[C@@]3(S(=O)(=O)c4ccc(F)cc4)c4ccc(Cc5c(F)cccc5Cl)cc4CC[C@@H]23)CC1 [Example 5, (1R,4r)-4-((3aR,9bR)-7-(2-chloro-6-fluorobenzyl)-9b-((4-fluorophenyl)sulfonyl)-2,3,3a,4,5,9b-hexahydro-1H-benzo[e]indole-3-carbonyl)cyclohexanecarboxylic acid] | 0.0071 µM
CC(=O)N1CC2(CC(C(=O)N3CC[C@@]4(S(=O)(=O)c5ccccc5)c5ccc(OCc6c(Cl)cccc6Cl)cc5CC[C@@H]34)C2)C1 [Example 68, 1-{6-[(3aR,9bR)-9b-(benzenesulfonyl)-7-[(2,6-dichlorophenyl)methoxy]-1H,2H,3H,3aH,4H,5H,9bH-benzo[e]indole-3-carbonyl]-2-azaspiro[3.3]heptan-2-yl}ethan-1-one] | 0.409 µM
CC(=O)N1CCC(C(=O)N2CC[C@@]3(S(=O)(=O)c4ccc(F)cc4)c4ccc(OCc5c(Cl)cccc5Cl)cc4CC[C@@H]23)CC1 [Example 189, 1-{4-[(3aR,9bR)-7-[(2,6-dichlorophenyl)methoxy] -9b-(4-fluorobenzenesulfonyl)-1H,2H,3H,3aH,4H,5H,9bH-benzo[e]indole-3-carbonyl]piperidin-1-yl}ethan-1-one] | 0.041 µM
C[C@]1(C(=O)N2CC[C@@]3(S(=O)(=O)c4ccc(F)cc4)c4ccc(OCc5c(F)cccc5Cl)cc4CC[C@@H]23)CC[C@H](C(=O)O)CC1 [Example 9, (1R,4r)-4-((3aR,9bR)-7-((2-chloro-6-fluorobenzyl)oxy)-9b-((4-fluorophenyl)sulfonyl)-2,3,3a,4,5,9b-hexahydro-1H-benzo[e]indole-3-carbonyl)-4-methylcyclohexanecarboxylic acid] | 0.017 µM
CS(=O)(=O)n1cc(C(=O)N2CC[C@@]3(S(=O)(=O)c4ccccc4)c4ccc(OCc5c(Cl)cccc5Cl)cc4CC[C@@H]23)cn1 [Example 99, 4-[(3aR,9bR)-9b-(benzenesulfonyl)-7-[(2,6-dichlorophenyl)methoxy]-1H,2H,3H,3aH,4H,5H,9bH-benzo[e]indole-3-carbonyl]-1-methanesulfonyl-1H-pyrazole] | 0.748 µM

Continued by falling EC50, values first:

EC50 | SMILES
0.957 µM | O=C1CCCN1CCC(=O)N1CC[C@@]2(S(=O)(=O)c3ccccc3)c3ccc(OCc4c(Cl)cccc4Cl)cc3CC[C@@H]12 [Example 76, 1-{3-[(3aR,9bR)-9b-(benzenesulfonyl)-7-[(2,6-dichlorophenyl)methoxy]-1H,2H,3H,3aH,4H,5H,9bH-benzo[e]indol-3-yl]-3-oxopropyl}pyrrolidin-2-one]
0.29 µM | O=C(O)[C@H]1CC[C@H](C(=O)N2CC[C@@]3(S(=O)(=O)c4ccccc4)c4ccc(OCc5ccccc5)cc4CC[C@@H]23)CC1 [Example 54, (1r,4r)-4-[(3aR,9bR)-9b-(benzenesulfonyl)-7-(benzyloxy)-1H,2H,3H,3aH,4H,5H,9bH-benzo[e]indole-3-carbonyl]cyclohexane-1-carboxylic acid]
0.039 µM | O=C(Nc1ccncc1)N1CC[C@@]2(S(=O)(=O)c3ccccc3)c3ccc(OCc4c(Cl)cccc4Cl)cc3CC[C@@H]12 [Example 87, (3aR,9bR)-9b-(benzenesulfonyl)-7-[(2,6-dichlorophenyl)methoxy]-N-(pyridin-4-yl)-1H,2H,3H,3aH,4H,5H,9bH-benzo[e]indole-3-carboxamide]
0.027 µM | C[C@@H]1C[C@@H](C(=O)O)CC[C@@H]1C(=O)N1CC[C@@]2(S(=O)(=O)c3ccc(F)cc3)c3ccc(OCc4c(F)cccc4C(F)(F)F)cc3CC[C@@H]12 [Example 26, (1S,3R,4S)-4-[(3aR,9bR)-7-{[2-fluoro-6-(trifluoromethyl)phenyl]methoxy}-9b-(4-fluorobenzenesulfonyl)-1H,2H,3H,3aH,4H,5H,9bH-benzo[e]indole-3-carbonyl]-3-methylcyclohexane-1-carboxylic acid]
0.01 µM | O=C(C1CCS(=O)(=O)CC1)N1CC[C@@]2(S(=O)(=O)c3ccc(F)cc3)c3ccc(COc4c(F)cccc4Cl)cc3CC[C@@H]12 [Example 33, 4-[(3aR,9bR)-7-[(2-chloro-6-fluorophenoxy)methyl]-9b-(4-fluorobenzenesulfonyl)-1H,2H,3H,3aH,4H,5H,9bH-benzo[e]indole-3-carbonyl]-1λ^6-thiane-1,1-dione]
0.0079 µM | O=C(N1CC[C@@]2(S(=O)(=O)c3ccccc3)c3ccc(OCc4c(Cl)cccc4Cl)cc3CC[C@@H]12)C1(O)CCS(=O)(=O)CC1 [Example 105, 4-[(3aR,9bR)-9b-(benzenesulfonyl)-7-[(2,6-dichlorophenyl)methoxy]-1H,2H,3H,3aH,4H,5H,9bH-benzo[e]indole-3-carbonyl]-4-hydroxy-1λ^6-thiane-1,1-dione]

From patent US20230295087A1, “AGONISTS OF ROR GAMMAt” (BRISTOL-MYERS SQUIBB COMPANY, priority 2019, published 2023)
